Test results reported in patent US10174032B2, “Heterocyclic compound classes for signaling modulation” (SignalRx Pharmaceuticals, Inc., priority 2014, dated 2019).
pIC50: −log10 of the molar value. Blank lines part the entries; values can stand above or below the compound they belong to.

Assays:
[1] = target: BRD4 (Homo sapiens, UniProt O60885); test: BRD4 inhibition assay of CAL101; assay type: binding; conditions: no significant BRD4 inhibition
[2] = target: PI3K-delta (Homo sapiens, UniProt O00329); test: Kinase inhibition assay, P-33 labelled ATP phosphate transfer, PI3K-delta; assay type: biochemical
Method: (§1) The assays determined the amount of radioactive phosphate transferred from P-33 labelled ATP to the substrate by the enzyme in the presence of various concentrations of the inhibitor test compounds. […] After this time period the cells were serum starved for 5 hours followed by application of the test compound. Test compound was added as a DMSO (dimethyl sulfoxide) solution such that the final DMSO concentration in the cell media was less than or equal to 0.2% by volume. After 30 minutes of exposure the growth factor stimulant, human IGF-1 (Pepro Tech, Inc., Rocky Hill, N.J., Cat.#100-11), was added in each well. […] A SpectraMax Plus spectrophotometric plate reader (Molecular Devices, Sunnydale, Calif.) was used to measure the optical density signal for pAKT at 450 nm (OD450 nm). The pAKT OD450 nm readings were normalized by total protein amount in the cell lysates determined by standard methods. Concentrations of test compounds required to inhibit IGF stimulated pAKT levels to 50% of maximum levels in PC3 cells (termed DM50 for decreased maximum 50%) were calculated by inputting the dose responses in the software package GraphPad Prism4 (GraphPad Software, Inc., San Diego, Calif.).

[3] = target: mTOR (Homo sapiens, UniProt P42345); test: Kinase inhibition assay, P-33 labelled ATP phosphate transfer, mTOR; assay type: biochemical; conditions: read-out: mTOR(% Inh at 300 nM)
Method: as §1

[4] = target: PI3K-alpha (Homo sapiens, UniProt P42336); test: Kinase inhibition assay, P-33 labelled ATP phosphate transfer, PI3K-alpha; assay type: biochemical
Sequence of PI3K-alpha (P42336 whole entry, species assumed): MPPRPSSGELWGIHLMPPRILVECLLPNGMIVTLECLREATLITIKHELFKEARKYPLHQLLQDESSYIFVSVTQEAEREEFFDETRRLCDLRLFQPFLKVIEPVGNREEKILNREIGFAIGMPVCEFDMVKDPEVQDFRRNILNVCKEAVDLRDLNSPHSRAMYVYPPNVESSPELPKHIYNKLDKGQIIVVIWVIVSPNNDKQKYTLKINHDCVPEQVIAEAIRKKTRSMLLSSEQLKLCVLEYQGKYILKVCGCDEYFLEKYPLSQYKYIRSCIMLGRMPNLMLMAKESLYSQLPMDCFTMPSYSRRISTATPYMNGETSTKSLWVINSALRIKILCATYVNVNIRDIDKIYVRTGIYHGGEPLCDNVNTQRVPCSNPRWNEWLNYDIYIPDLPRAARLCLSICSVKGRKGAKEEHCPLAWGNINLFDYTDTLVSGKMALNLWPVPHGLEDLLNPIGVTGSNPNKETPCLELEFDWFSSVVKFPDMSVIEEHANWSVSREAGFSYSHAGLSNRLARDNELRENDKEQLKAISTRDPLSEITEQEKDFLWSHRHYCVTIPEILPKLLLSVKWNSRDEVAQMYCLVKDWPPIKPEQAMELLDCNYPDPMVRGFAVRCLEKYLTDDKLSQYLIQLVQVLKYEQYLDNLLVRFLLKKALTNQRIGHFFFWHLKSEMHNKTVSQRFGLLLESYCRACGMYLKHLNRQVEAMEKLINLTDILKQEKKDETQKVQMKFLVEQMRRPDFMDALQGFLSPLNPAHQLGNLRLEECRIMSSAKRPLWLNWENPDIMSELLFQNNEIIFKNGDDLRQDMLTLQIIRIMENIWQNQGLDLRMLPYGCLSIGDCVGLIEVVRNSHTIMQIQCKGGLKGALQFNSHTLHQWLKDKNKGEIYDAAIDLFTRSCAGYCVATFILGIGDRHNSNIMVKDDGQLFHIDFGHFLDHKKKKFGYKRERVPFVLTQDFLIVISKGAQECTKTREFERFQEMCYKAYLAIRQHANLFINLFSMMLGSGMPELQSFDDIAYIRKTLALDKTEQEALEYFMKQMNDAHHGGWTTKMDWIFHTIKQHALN
Sequence of PI3K-alpha (P27986 whole entry partner, species assumed): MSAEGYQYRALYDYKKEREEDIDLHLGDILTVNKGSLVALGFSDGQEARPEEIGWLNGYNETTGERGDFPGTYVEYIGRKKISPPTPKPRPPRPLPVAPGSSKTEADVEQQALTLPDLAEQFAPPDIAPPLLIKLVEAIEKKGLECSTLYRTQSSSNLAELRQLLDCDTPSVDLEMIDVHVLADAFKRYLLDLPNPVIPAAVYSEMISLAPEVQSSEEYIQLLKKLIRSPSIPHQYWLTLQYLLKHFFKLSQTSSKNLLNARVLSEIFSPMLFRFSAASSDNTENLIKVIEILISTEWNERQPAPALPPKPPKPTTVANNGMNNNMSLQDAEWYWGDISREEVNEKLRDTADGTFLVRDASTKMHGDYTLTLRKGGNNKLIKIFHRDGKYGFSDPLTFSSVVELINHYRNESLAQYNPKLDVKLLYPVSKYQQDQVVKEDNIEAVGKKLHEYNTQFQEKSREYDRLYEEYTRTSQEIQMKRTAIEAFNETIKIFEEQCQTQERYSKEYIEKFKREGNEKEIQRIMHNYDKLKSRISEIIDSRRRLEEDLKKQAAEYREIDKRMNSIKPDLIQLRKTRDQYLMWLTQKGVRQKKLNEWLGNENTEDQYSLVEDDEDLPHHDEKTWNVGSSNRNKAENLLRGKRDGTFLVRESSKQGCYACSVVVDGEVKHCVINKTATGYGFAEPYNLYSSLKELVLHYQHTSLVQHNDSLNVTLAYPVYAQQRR
Method: as §1

[5] = test system: pAKT serine 473 in PC3 cells; test: IGF-1 stimulated pAKT serine 473 level in PC3 cells (sandwich ELISA); assay type: cell-based; conditions: Homo sapiens, PC-3, 0.5 h, 30 minutes compound exposure, termed DM50 in text
Method: as §1

[6] = target: PLK-1 (Homo sapiens, UniProt P53350); test: Kinase inhibition assay, P-33 labelled ATP phosphate transfer, PLK-1; assay type: biochemical
Sequence of PLK-1 (P53350 whole entry, species assumed): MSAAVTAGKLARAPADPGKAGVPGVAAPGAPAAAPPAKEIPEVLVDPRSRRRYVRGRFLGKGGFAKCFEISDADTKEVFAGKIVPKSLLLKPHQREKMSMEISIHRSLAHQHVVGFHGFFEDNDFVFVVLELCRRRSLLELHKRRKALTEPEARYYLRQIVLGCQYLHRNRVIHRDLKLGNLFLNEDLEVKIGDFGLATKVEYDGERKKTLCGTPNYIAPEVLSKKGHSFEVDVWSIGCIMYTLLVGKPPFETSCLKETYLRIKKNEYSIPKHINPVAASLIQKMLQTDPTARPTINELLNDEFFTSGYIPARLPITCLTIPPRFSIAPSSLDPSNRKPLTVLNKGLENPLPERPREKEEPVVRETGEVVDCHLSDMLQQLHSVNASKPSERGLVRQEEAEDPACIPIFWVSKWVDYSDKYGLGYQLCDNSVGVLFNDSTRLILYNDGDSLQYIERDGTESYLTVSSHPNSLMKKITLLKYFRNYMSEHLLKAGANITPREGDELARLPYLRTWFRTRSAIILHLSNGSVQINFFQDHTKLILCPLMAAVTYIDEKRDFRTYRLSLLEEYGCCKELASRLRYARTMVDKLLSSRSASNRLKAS
Method: as §1

[7] = target: PI3K-gamma (Homo sapiens, UniProt P48736); test: Kinase inhibition assay, P-33 labelled ATP phosphate transfer, PI3K-gamma; assay type: biochemical
Sequence of PI3K-gamma (P48736 whole entry, species assumed): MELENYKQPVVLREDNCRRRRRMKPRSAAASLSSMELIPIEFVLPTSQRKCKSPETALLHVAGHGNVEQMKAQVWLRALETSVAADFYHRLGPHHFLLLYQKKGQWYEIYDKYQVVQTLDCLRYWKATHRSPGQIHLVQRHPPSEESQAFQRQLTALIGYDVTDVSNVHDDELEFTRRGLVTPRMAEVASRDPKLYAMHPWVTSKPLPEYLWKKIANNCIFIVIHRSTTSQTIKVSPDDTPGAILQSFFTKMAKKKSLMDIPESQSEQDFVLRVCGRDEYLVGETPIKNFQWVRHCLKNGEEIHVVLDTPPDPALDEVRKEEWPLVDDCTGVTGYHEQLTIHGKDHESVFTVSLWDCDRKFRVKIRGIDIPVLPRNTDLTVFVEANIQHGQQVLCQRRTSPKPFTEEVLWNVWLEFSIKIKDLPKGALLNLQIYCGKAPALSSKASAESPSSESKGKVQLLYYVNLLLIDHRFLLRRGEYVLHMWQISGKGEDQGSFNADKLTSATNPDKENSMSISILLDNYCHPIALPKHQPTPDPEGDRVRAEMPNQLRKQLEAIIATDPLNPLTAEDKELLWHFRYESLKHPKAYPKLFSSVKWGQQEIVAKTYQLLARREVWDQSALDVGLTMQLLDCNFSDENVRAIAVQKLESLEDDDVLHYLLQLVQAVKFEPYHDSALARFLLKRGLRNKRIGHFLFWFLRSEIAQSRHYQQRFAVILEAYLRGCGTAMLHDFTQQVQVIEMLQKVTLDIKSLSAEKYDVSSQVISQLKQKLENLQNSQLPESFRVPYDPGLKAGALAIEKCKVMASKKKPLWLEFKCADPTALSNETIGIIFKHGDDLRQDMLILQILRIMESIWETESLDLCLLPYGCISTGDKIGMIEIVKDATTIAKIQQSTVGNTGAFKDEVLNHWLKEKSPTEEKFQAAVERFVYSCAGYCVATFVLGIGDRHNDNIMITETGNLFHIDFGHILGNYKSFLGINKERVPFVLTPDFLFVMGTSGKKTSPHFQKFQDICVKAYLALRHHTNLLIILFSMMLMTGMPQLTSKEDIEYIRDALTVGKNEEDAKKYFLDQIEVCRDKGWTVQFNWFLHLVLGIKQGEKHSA
Method: as §1

[8] = test system: PC3 cells; test: PC3 cell proliferation (WST, 72 hours); assay type: cell-based; conditions: Homo sapiens, PC-3; PC3 cells, 72 hours, WST; read-out: PC3 cell proliferation(IC50 μM)
Method: The PC3 cell proliferation data in column 26 of Table 5 was obtained as follows: PC3 cells were obtained from the American Type Culture Collection (ATCC, Manassas, Va., Cat.#CRL-1435). Two thousand cells from the prostate cancer line PC3 were placed in 50 μL of complete RPMI 1640 media (Invitrogen, Carlsbad, Calif., Cat.#22400-105) with 10% fetal bovine serum, (Invitrogen, Carlsbad, Calif., Cat.#10438-026) into each well of 96-well cell culture plates in a hexaplicate sampling pattern. A 50 μL aliquot of test compound (prepared from stock test compounds in DMSO diluted into media) was added to the appropriate well such that the final concentrations of test compound were 200, 40, 8, 1.6, 0.32, 0.064, 0.0128, 0.00256, and 0 μM and the final DMSO concentration was less than or equal to 0.2% . The plates were incubated for 72 hours 37° C. in an atmosphere of 5% CO2. At the end of this time a 10 μL aliquot of WST solution (Roche Applied Science, Mannheim, Germany) was added into each of the wells. Cells were exposed to the WST solution for 4 hours. A SpectraMax Plus spectrophotometric plate reader (Molecular Devices, Sunnydale, Calif.) was then used to measure the optical density at 450 nm (OD450 nm). Sigmoidal curves were drawn for the dose responses and IC50 values were calculated using the software package GraphPad Prism4 (GraphPad Software, Inc., San Diego, Calif.).

[9] = target: PI3K-beta (Homo sapiens, UniProt P42338); test: Kinase inhibition assay, P-33 labelled ATP phosphate transfer, PI3K-beta; assay type: biochemical
Sequence of PI3K-beta (P42338 whole entry, species assumed): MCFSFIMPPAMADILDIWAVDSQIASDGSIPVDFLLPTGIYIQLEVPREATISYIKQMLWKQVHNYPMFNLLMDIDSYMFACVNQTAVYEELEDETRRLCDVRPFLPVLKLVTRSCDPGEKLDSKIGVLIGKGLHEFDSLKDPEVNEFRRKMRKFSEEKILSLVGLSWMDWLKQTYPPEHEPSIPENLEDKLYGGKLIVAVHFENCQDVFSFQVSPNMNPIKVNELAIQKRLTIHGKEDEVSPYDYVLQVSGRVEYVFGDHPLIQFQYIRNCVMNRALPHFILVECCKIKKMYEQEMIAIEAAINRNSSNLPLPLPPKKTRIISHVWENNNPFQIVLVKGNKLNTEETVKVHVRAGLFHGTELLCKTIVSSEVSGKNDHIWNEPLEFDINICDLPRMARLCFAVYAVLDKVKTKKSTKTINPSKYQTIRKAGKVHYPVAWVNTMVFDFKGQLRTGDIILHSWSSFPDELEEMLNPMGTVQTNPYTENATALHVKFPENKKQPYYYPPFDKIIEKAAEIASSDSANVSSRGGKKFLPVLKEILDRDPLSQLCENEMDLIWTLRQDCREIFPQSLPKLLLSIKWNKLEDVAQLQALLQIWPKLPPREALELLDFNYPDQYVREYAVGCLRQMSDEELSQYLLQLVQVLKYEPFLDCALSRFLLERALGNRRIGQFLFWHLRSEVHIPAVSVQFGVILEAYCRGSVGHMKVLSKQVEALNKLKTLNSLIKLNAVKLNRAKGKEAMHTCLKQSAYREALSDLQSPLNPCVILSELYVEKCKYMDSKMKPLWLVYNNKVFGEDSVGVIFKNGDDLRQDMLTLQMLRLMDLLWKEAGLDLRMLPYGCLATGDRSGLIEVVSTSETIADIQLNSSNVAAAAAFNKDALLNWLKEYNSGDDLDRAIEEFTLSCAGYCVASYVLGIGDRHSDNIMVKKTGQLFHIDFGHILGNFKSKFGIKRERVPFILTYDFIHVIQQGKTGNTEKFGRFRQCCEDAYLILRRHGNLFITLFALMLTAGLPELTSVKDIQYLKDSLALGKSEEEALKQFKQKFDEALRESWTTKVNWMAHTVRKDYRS
Sequence of PI3K-beta (P27986 whole entry partner, species assumed): as the sequence (P27986 whole entry partner, species assumed) above
Method: as §1

[10] = target: BET protein BRD4-1 (Homo sapiens, UniProt O60885); conditions: S W J Ember 2014; cited from earlier work

- pIC50 [1]: < 4.30
SMILES: CC[C@H](Nc1ncnc2[nH]cnc12)c1nc2cccc(F)c2c(=O)n1-c1ccccc1 [CAL101]

- pIC50 [2]: 5.82
- inhibition at 0.3 µM [3]: 4%
- IC50 [4]: 1.4 µM
- IC50 [5]: 11 µM
- IC50 [6]: 2.3 µM
- pIC50 [7]: 5.26
- IC50 [8]: 28 µM
- pIC50 [9]: 5.00
SMILES: O=c1nc(N2CCOCC2)oc2c(-c3ccccc3)csc12 [Compound 3, 2-morpholino-7-phenyl-4H-thieno[2,3-e][1,3]oxazin-4-one]

SMILES: Cc1cnc(Nc2ccc(N3CCN(C)CC3)cc2)nc1Nc1cccc(S(=O)(=O)NC(C)(C)C)c1 [TG101209]
- inhibition of BET protein BRD4-1 [10]: potently inhibit
